The supplement of paper PMC11061612

Tests used:
Experiment in all cases: Bliss excess, mean over the matrix (fraction); higher = more synergy
[1] = system: NTERA-2-cl-D1 (Other Solid Carcinomas)
Procedure, shortened: (§1)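 Cell lines in DMEM/F12 or RPMI with 10% FBS were plated in 1536-well plates, held 24 hours at 37°C, 5% CO2, then given two-drug dose matrices for 72 hours (DMSO typically 0.2%). Viability was read by CellTiter-Glo 2.0 luminescence and scaled as inhibition from 0 (vehicle wells) to 1 (blank wells). Combination Emax is the second-highest inhibition in the matrix; Bliss excess is observed combination effect minus expected EA + EB − EA·EB, EA and EB being single-agent effects.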

[2] = system: COR-L105 (Lung Adenocarcinoma)
Procedure, shortened: as §1

[3] = system: SW1463 (Colorectal Carcinoma)
Procedure, shortened: as §1

MG-63 (Osteosarcoma) = system: MG-63 (Osteosarcoma)
Procedure, shortened: as §1

GCIY (Gastric Carcinoma) = system: GCIY (Gastric Carcinoma)
Procedure, shortened: as §1

[4] = system: MRK-nu-1 (Breast Carcinoma)
Procedure, shortened: as §1

[5] = system: L-363 (Plasma Cell Myeloma)
Procedure, shortened: as §1

[6] = system: NCI-H835 (Other Solid Carcinomas)
Procedure, shortened: as §1

[7] = system: NCI-H1975 (Lung Adenocarcinoma)
Procedure, shortened: as §1

[8] = system: SCC90 (Head and Neck Carcinoma)
Procedure, shortened: as §1

[9] = system: JURL-MK1 (Chronic Myelogenous Leukemia)
Procedure, shortened: as §1

[10] = system: C2BBe1 (Colorectal Carcinoma)
Procedure, shortened: as §1

[11] = system: HT-1197 (Bladder Carcinoma)
Procedure, shortened: as §1

[12] = system: RS4-11 (B-Lymphoblastic Leukemia)
Procedure, shortened: as §1

[13] = system: TK (B-Cell Non-Hodgkin's Lymphoma)
Procedure, shortened: as §1

[14] = system: NCI-H1048 (Small Cell Lung Carcinoma)
Procedure, shortened: as §1

Row | Compound | Bliss excess [1] | Bliss excess [2] | Bliss excess [3] | Bliss excess (MG-63 (Osteosarcoma)) | Bliss excess (GCIY (Gastric Carcinoma)) | Bliss excess [4] | Bliss excess [5] | Bliss excess [6] | Bliss excess [7] | Bliss excess [8] | Bliss excess [9] | Bliss excess [10] | Bliss excess [11] | Bliss excess [12] | Bliss excess [13] | Bliss excess [14]
1 | O=C(c1cc(Cc2n[nH]c(=O)c3ccccc23)ccc1F)N1CCN(C(=O)C2CC2)CC1 [Olaparib] + Cc1c2c(nn1C)CSCc1cc(n(C)n1)CSc1cc(c3ccccc3c1)OCCCc1c(C(=O)O)n(C)c3c-2c(Cl)ccc13 [AZD5991] (first compound max 10 µM, 7x7, partner max 1 µM) | 0.0289 | -0.0494 | -0.0325 | -0.0465 | -0.041 | 0.0135 | 0.0277 | -0.0467 | – | – | – | – | – | – | – | –
2 | Cc1c2c(nn1C)CSCc1cc(n(C)n1)CSc1cc(c3ccccc3c1)OCCCc1c(C(=O)O)n(C)c3c-2c(Cl)ccc13 [AZD5991] + Nc1ccn([C@@H]2O[C@H](CO)[C@@H](O)C2(F)F)c(=O)n1 [Gemcitabine] (first compound max 1 µM, 7x7, partner max 0.3 µM) | -0.0695 | 0.0042 | -0.0715 | -0.071 | 0.0091 | 0.0571 | 0.0938 | 0.0842 | – | – | – | – | – | – | – | –
3 | CC(=O)c1c(C)c2cnc(Nc3ccc(N4CCNCC4)cn3)nc2n(C2CCCC2)c1=O [Palbociclib] + CN(CC[C@H](CSC1=CC=CC=C1)NC2=C(C=C(C=C2)S(=O)(=O)NC(=O)C3=CC=C(C=C3)N4CCC(CC4)[C@H](C5=CC=CC=C5C6=CC=C(C=C6)Cl)O)S(=O)(=O)C(F)(F)F)CCO [AZD4320] (first compound max 10 µM, 7x7, partner max 1 µM) | – | – | – | – | – | – | – | – | -0.0291 | -0.0407 | -0.075 | -0.0652 | -0.0184 | -0.0308 | 0.0858 | 0.019
4 | COc1nnc2ccc(N3CCC(c4ccc(OCCN5CCN(C)C(=O)[C@H]5C)cc4)CC3)nn12 [AZD5153] + CN(CC[C@H](CSC1=CC=CC=C1)NC2=C(C=C(C=C2)S(=O)(=O)NC(=O)C3=CC=C(C=C3)N4CCC(CC4)[C@H](C5=CC=CC=C5C6=CC=C(C=C6)Cl)O)S(=O)(=O)C(F)(F)F)CCO [AZD4320] (first compound max 1 µM, 7x7, partner max 1 µM) | – | – | – | – | – | – | – | – | -0.012 | 0.021 | -0.0137 | -0.0521 | 0.073 | 0.0211 | -0.0154 | 0.0831
5 | O=C(c1cc(Cc2n[nH]c(=O)c3ccccc23)ccc1F)N1CCN(C(=O)C2CC2)CC1 [Olaparib] + CN(CC[C@H](CSC1=CC=CC=C1)NC2=C(C=C(C=C2)S(=O)(=O)NC(=O)C3=CC=C(C=C3)N4CCC(CC4)[C@H](C5=CC=CC=C5C6=CC=C(C=C6)Cl)O)S(=O)(=O)C(F)(F)F)CCO [AZD4320] (first compound max 10 µM, 7x7, partner max 1 µM) | 0.0258 | -0.049 | 0.0073 | -0.0185 | 0.0025 | 0.0031 | 0.0718 | -0.043 | – | – | – | – | – | – | – | –
6 | Cc1c2c(nn1C)CSCc1cc(n(C)n1)CSc1cc(c3ccccc3c1)OCCCc1c(C(=O)O)n(C)c3c-2c(Cl)ccc13 [AZD5991] + CC(=O)O[C@H]1C(=O)[C@@]2(C)[C@H]([C@H](OC(=O)c3ccccc3)[C@]3(O)C[C@H](OC(=O)[C@H](O)[C@@H](NC(=O)c4ccccc4)c4ccccc4)C(C)=C1C3(C)C)[C@]1(OC(C)=O)CO[C@@H]1C[C@@H]2O [Paclitaxel] (first compound max 1 µM, 7x7, partner max 3 µM) | 0.111 | -0.0367 | 0.0763 | -0.0715 | -0.0262 | 0.0286 | -0.0043 | 0.0252 | – | – | – | – | – | – | – | –
7 | C[C@@H](Oc1cc(-c2cnn(C3CCNCC3)c2)cnc1N)c1c(Cl)ccc(F)c1Cl [Crizotinib] + CC1=C(C(=CC=C1)Cl)NC(=O)C2=CN=C(S2)NC3=CC(=NC(=N3)C)N4CCN(CC4)CCO [Dasatinib] (first compound max 10 µM, 7x7, partner max 2 µM) | 0.0073 | -0.0313 | -0.0926 | 0.0498 | 0.0537 | -0.0711 | 0.004 | 0.0045 | – | – | – | – | – | – | – | –
8 | O=C(c1cc(Cc2n[nH]c(=O)c3ccccc23)ccc1F)N1CCN(C(=O)C2CC2)CC1 [Olaparib] + COc1nnc2ccc(N3CCC(c4ccc(OCCN5CCN(C)C(=O)[C@H]5C)cc4)CC3)nn12 [AZD5153] (first compound max 10 µM, 7x7, partner max 1 µM) | -0.127 | -0.0689 | -0.0601 | -0.0749 | -0.0248 | 0.0665 | 0.0357 | -0.0422 | – | – | – | – | – | – | – | –
9 | C[C@@H]1COCCN1c1cc(C2([S@](C)(=N)=O)CC2)nc(-c2ccnc3[nH]ccc23)n1 [AZD6738] + Nc1ccn([C@@H]2O[C@H](CO)[C@@H](O)C2(F)F)c(=O)n1 [Gemcitabine] (first compound max 10 µM, 7x7, partner max 0.3 µM) | -0.0019 | 0.003 | -0.0128 | 0.17 | -0.0362 | -0.0532 | 0.0716 | 0.0442 | – | – | – | – | – | – | – | –
10 | O=C(c1cc(Cc2n[nH]c(=O)c3ccccc23)ccc1F)N1CCN(C(=O)C2CC2)CC1 [Olaparib] + CC1(C)CCC(CN2CCN(c3ccc(C(=O)NS(=O)(=O)c4ccc(NCC5CCOCC5)c([N+](=O)[O-])c4)c(Oc4cnc5[nH]ccc5c4)c3)CC2)=C(c2ccc(Cl)cc2)C1 [Venetoclax] (first compound max 10 µM, 7x7, partner max 1 µM) | -0.0419 | -0.0328 | -0.0111 | 0.0113 | -0.0547 | 0.0277 | 0.0557 | -0.0096 | – | – | – | – | – | – | – | –
